# Results: publication PMC12205066, “Lysosomal EGFR acts as a Rheb-GEF independent of its kinase activity to activate mTORC1” (Cell Research, 2025)
# Target: T1, Rheb (Homo sapiens, UniProt Q15382)
# T1 construct: GST-tagged Rheb amino acids 1–169
# Test: RP-HPLC of nucleotide released from purified denatured GST-Rheb
# Type: binding
# T1 sequence (Q15382 1-169): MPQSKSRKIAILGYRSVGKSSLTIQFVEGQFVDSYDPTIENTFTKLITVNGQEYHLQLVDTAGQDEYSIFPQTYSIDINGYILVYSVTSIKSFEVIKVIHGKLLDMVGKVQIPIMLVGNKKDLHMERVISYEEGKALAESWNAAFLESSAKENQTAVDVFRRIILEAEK
compound,measurement,value
Nc1nc2c(ncn2[C@@H]2O[C@H](CO[P@](=O)(O)OP(=O)(O)O)[C@@H](O)[C@H]2O)c(=O)[nH]1 [GDP],RP-HPLC of nucleotide released from purified denatured GST-Rheb,"glutathione-S-transferase (GST)-tagged Rheb, which had a substantial GDP-bound fraction"
